# Measurements reported in ChEMBL document CHEMBL5729033, “Macrocyclic compounds that inhibit MCL-1 protein” (2022).
# Target: Induced myeloid leukemia cell differentiation protein Mcl-1/Bcl-2-like protein 11 (Homo sapiens, UniProt Q07820)
# Assay: Cell Free Mcl-1:Bim Affinity Assay (Mcl-1 HTRF): The inhibition of the Mcl-1/Bim interaction was measured using a time-resolved fluorescence resonance energy transfer (TR-FRET) assay. The recombinant human Mcl-1 (C-terminally 6×His tagged Mcl-1 containing residues 171-327) was generated at Amgen Inc (Thousand Oaks, Calif.). A biotinylated peptide derived from human Bim (residues 51-76) was purchased from CPC Scientific (San Jose, Calif.). The TR-FRET assay was conducted in a 384-well white OptiPlate™ (PerkinElmer, Waltham, Mass.) in a total volume of 40 μL. The reaction mixture contained 0.1 nM Mcl-1(171-327), 0.05 nM biotin-Bim(51-76), 0.05 nM LANCES Eu-W1024 Anti-6×His (PerkinElmer), 0.072 nM Streptavidin-Xlent (Cisbio, Bedford, Mass.), and serially diluted test compounds in the binding buffer of 20 mM Hepes, pH 7.5, 150 mM NaCl, 0.016 mM Brij®35, and 1 mM dithiothreitol. Test compounds were pre-incubated with Mcl-1(171-327) and biotin-Bim (51-76) for 60 min before addition of the detection mixture (LANCE® Eu-W1024 Anti-6×His and Streptavidin-Xlent). The reaction plates were further incubated overnight and then were read on an Envision® multimode reader (PerkinElmer). Fluorescence signals were measured at 620 nm (40-nm bandwidth) and 665 nm (7.5-nm bandwidth) with a 60 μs delay after excitation at 320 nm (75-nm bandwidth). […]
# Type: protein assay
# Sequence of Induced myeloid leukemia cell differentiation protein Mcl-1/Bcl-2-like protein 11 (Q07820 whole entry, the tested form may be a part): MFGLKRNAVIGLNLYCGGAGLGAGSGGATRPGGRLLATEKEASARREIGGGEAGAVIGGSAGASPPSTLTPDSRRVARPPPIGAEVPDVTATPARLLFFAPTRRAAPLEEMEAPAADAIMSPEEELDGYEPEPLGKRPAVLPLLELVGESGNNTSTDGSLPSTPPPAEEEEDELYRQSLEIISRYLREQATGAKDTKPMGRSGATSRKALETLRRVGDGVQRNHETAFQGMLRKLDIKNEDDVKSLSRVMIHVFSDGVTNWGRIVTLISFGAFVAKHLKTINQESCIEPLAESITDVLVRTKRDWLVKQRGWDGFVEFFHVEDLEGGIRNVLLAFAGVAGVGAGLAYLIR
# Sequence of Induced myeloid leukemia cell differentiation protein Mcl-1/Bcl-2-like protein 11 (O43521 whole entry, further chain, the tested form may be a part): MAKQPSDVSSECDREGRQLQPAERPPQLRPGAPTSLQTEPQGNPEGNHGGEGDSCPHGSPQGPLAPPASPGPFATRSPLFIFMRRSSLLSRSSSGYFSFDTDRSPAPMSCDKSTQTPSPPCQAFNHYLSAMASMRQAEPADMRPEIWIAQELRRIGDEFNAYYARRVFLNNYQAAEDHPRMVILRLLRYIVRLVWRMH
row,IC50,Structure (SMILES)
1,1.42 nM,C[C@@H]1[C@@H](C)CCC[C@H](CN2CCN3CCN(C(=O)OC(C)(C)C)C[C@@H]3C2)[C@@H]2CC[C@H]2CN2C[C@@]3(CCCc4cc(Cl)ccc43)COc3ccc(cc32)C(=O)NS1(=O)=O
2,0.123 nM,C[C@@H]1[C@@H](C)CCC[C@@H](CC(=O)N2CCN3CCOC[C@H]3C2)[C@@H]2CC[C@H]2CN2C[C@@]3(CCCc4cc(Cl)ccc43)COc3ccc(cc32)C(=O)NS1(=O)=O
